Experiments:
[1] = system: RAW264.7; experiment: Cytotoxicity against mouse RAW264.7 cells at 20 uM measured after 24 hrs; format: cell-based; conditions: raw264.7, 24 h
[2] = system: L02; experiment: Cytotoxicity against human L02 cells assessed as cell viability by MTT assay; format: cell-based
[3] = system: RAW264.7; experiment: Cytotoxicity against LPS-induced mouse RAW 264.7 cells assessed as cell viability measured by MTT assay; format: cell-based
[4] = target: T1, Nitric oxide synthase, inducible (Mus musculus, UniProt P29477); experiment: Inhibition of LPS induced NO-dependent iNOS activity in mouse RAW 264.7 cells preincubated for 1 hrs followed by LPS stimulation and measured after 24 hrs by Griess reagent based assay; format: cell-based, RAW264.7
T1 sequence (P29477 whole entry): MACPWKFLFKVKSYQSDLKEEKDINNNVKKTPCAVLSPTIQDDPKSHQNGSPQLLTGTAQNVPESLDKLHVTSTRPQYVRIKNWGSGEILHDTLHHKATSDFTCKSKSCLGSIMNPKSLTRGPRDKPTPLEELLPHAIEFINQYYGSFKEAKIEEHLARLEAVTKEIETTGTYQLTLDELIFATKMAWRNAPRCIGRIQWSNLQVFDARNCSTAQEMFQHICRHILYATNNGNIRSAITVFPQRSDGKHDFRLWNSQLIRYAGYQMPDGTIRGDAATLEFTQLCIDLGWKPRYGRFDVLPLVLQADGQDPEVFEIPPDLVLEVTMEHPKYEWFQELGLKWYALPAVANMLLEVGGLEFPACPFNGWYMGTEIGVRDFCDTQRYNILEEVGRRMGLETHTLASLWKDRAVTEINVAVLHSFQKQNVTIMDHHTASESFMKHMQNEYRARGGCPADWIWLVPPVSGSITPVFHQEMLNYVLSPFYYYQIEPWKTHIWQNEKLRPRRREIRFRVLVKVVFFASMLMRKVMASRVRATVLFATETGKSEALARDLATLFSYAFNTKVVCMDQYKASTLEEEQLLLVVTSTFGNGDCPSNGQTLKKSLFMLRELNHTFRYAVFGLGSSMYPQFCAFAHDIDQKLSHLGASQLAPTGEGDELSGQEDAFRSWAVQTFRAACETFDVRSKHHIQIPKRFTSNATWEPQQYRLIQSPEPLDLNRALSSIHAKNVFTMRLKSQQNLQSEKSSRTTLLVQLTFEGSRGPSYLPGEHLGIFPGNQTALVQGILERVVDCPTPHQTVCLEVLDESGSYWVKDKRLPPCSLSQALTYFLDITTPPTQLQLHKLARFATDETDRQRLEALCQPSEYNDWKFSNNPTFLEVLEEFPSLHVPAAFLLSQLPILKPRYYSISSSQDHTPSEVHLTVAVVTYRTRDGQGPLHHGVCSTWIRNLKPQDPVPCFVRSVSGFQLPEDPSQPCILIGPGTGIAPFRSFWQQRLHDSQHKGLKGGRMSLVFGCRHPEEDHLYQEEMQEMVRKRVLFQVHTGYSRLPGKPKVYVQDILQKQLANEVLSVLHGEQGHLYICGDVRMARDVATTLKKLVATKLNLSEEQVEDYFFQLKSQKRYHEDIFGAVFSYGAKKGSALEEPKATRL

[5] = system: RAW264.7; experiment: Cytotoxicity against mouse RAW 264.7 cells assessed as cell viability by MTT assay; format: cell-based
[6] = system: RAW264.7; experiment: Antiinflammatory activity against mouse RAW264.7 cells assessed as inhibition of LPS-induced NO production at 10 uM preincubated for 1 hrs followed by LPS stimulation and measured after 24 hrs by Griess assay relative to control; format: functional; conditions: time 25 hrs
[7] = system: RAW264.7; experiment: Inhibition of LPS-induced NO release in mouse RAW264.7 cells preincubated for 1 hrs followed by LPS stimulation and measured after 24 hrs by Griess reagent based assay; format: functional, cell-based
[8] = system: L02; experiment: Antiinflammatory activity against human L02 assessed as inhibition of LPS-induced NO production preincubated for 1 hrs followed by LPS stimulation and measured after 24 hrs by Griess assay relative to control; format: functional, cell-based

| SMILES | Activity [1] | IC50 [2] [µM] | IC50 [3] [µM] | IC50 [4] [µM] | IC50 [5] [µM] | inhibition at 10 µM [6] [%] | IC50 [7] [µM] | IC50 [8] [µM] |
| --- | --- | --- | --- | --- | --- | --- | --- | --- |
| COc1ccc(CNc2nc(/C=C/c3cc(OC)c(OC)c(OC)c3)nc3ccsc23)cc1 | Non-Toxic | 2050 | > 50 | 3.26 | > 50 | 73.7 | 7.54 | > 1000 |
| COc1cc(/C=C/c2nc(Nc3ccc(O)cc3)c3sccc3n2)cc(OC)c1OC | Non-Toxic | 2300 | > 50 | 1.89 | > 50 | 97.7 | 4.07 | > 1000 |
| COc1cc(/C=C/c2nc(NCc3ccccc3)c3sccc3n2)cc(OC)c1OC | Non-Toxic | 1800 | > 50 | 3.62 | > 50 | 71.9 | 8.26 | > 1000 |
| CN1CCN(c2nc(/C=C/c3ccccc3)nc3ccsc23)CC1 | Non-Toxic | – | – | – | – | 18.5 | – | 198 |
| CCCc1nn(C)c2c(NCCc3cccc(Cl)c3)nc(/C=C/c3nc(C)c(C)nc3C)nc12 | Non-Toxic | – | – | – | – | 68.8 | – | 786 |
| COc1cc(/C=C/c2nc(N(C)c3ccccc3)c3sccc3n2)cc(OC)c1OC | Non-Toxic | – | – | – | – | 32.5 | – | 767 |
| COc1cc(/C=C/c2nc(NCc3ccc(Cl)cc3)c3sccc3n2)cc(OC)c1OC | Non-Toxic | 4320 | > 50 | 4.23 | > 50 | 65.5 | 9.05 | > 1000 |
| COc1cc(/C=C/c2nc(N3CCCC3)c3sccc3n2)cc(OC)c1OC | Non-Toxic | – | – | – | – | 33.2 | – | 681 |
| COc1cc(/C=C/c2nccc(NC(C)C)n2)cc(OC)c1OC | Non-Toxic | – | – | – | – | 61 | – | < 40 |
| CCCc1nn(C)c2c(N3CCOCC3)nc(/C=C/c3ccc[n+]([O-])c3)nc12 | Non-Toxic | – | – | – | – | 20.8 | – | 817 |
| COc1cc(/C=C/c2nc(N3CCN(C)CC3)c3sccc3n2)cc(OC)c1OC | Non-Toxic | – | – | – | – | 39.3 | – | > 1000 |
| Brc1ccc(CNc2nc(/C=C/c3ccccc3)nc3ccsc23)cc1 | Non-Toxic | – | – | – | – | 19.5 | – | > 1000 |
| COc1cc(/C=C/c2nc(Cl)cc(NCCc3ccccc3)n2)cc(OC)c1OC | Non-Toxic | – | – | – | – | 31.2 | – | < 40 |
| COc1cc(/C=C/c2nc(Cl)cc(NCCc3ccc(F)cc3)n2)cc(OC)c1OC | Non-Toxic | – | – | – | – | 55.9 | – | < 40 |
| CCCc1nn(C)c2c(NC(C)C)nc(CCc3cccnc3)nc12 | Non-Toxic | – | – | – | – | 30.2 | – | 514 |
| CCCc1nn(C)c2c(NC3CC3)nc(/C=C/c3cccnc3)nc12 | Non-Toxic | – | – | – | – | 49.5 | – | 261 |
| Fc1ccc(CNc2nc(/C=C/c3ccccc3)nc3ccsc23)cc1 | Non-Toxic | – | – | – | – | 23.4 | – | > 1000 |
| CNc1nc(/C=C/c2ccccc2)nc2ccsc12 | Non-Toxic | – | – | – | – | 21.9 | – | > 1000 |

| SMILES | Activity [1] | IC50 [2] [µM] | IC50 [3] [µM] | IC50 [4] [µM] | IC50 [5] [µM] | inhibition at 10 µM [6] [%] | IC50 [7] [µM] | IC50 [8] [µM] |
| --- | --- | --- | --- | --- | --- | --- | --- | --- |
| Brc1ccc(Nc2nc(/C=C/c3ccccc3)nc3ccsc23)cc1 | Non-Toxic | – | – | – | – | 19.5 | – | > 1000 |
| Fc1ccc(CCNc2nc(/C=C/c3ccccc3)nc3ccsc23)cc1 | Non-Toxic | – | – | – | – | 29.8 | – | > 1000 |
| CCCc1nn(C)c2c(NCc3ccc(F)cc3)nc(/C=C/c3cccnc3)nc12 | Non-Toxic | – | – | – | – | 61.3 | – | 940 |
| C[C@@H]1C[C@H]2[C@@H]3CCC4=CC(=O)C=C[C@]4(C)[C@@]3(F)[C@@H](O)C[C@]2(C)[C@@]1(O)C(=O)CO [DEXAMETHASONE] | – | 4620 | > 50 | > 10 | > 50 | 51.8 | 8.71 | 4620 |
| CCCc1nn(C)c2c(NCCc3cccc(Cl)c3)nc(CCc3cccnc3)nc12 | Non-Toxic | – | – | – | – | 37.5 | – | 612 |
| COc1cc(/C=C/c2nc(OCc3ccccc3)c3sccc3n2)cc(OC)c1OC | Non-Toxic | – | – | – | – | 33.8 | – | > 1000 |
| CN(C)c1nc(/C=C/c2ccccc2)nc2ccsc12 | Non-Toxic | – | – | – | – | 3.57 | – | > 1000 |
| COc1ccc(Nc2nc(/C=C/c3ccccc3)nc3ccsc23)cc1 | Non-Toxic | – | – | – | – | 21.9 | – | > 1000 |
| Clc1ccccc1CNc1nc(/C=C/c2ccccc2)nc2ccsc12 | Non-Toxic | – | – | – | – | 35.2 | – | > 1000 |
| CCCc1nn(C)c2c(NCCc3ccccc3)nc(/C=C/c3cccnc3)nc12 | Non-Toxic | – | – | – | – | 77.4 | – | > 1000 |
| CCCc1nn(C)c2c(N3CCS(=O)(=O)CC3)nc(/C=C/c3ccc[n+]([O-])c3)nc12 | Non-Toxic | – | – | – | – | 3.13 | – | > 1000 |
| CCCc1nn(C)c2c(N3CCOCC3)nc(CCc3cccnc3)nc12 | Non-Toxic | – | – | – | – | 27.1 | – | 859 |
| C(=C\c1ccco1)/c1nc(N2CCOCC2)c2sccc2n1 | Non-Toxic | – | – | – | – | 28.1 | – | > 1000 |
| CCCc1nn(C)c2c(NCCc3ccccc3)nc(CCc3cccnc3)nc12 | Non-Toxic | – | – | – | – | 36.5 | – | 783 |
| COc1cc(/C=C/c2nc(Nc3ccc(C(C)C)cc3)c3sccc3n2)cc(OC)c1OC | Non-Toxic | – | – | – | – | 13.3 | – | 370 |
| COc1cc(/C=C/c2nc(Cl)cc(NC(C)C)n2)cc(OC)c1OC | Non-Toxic | – | – | – | – | 29 | – | < 40 |
| CCCc1nn(C)c2c(NC3CC3)nc(CCc3cccnc3)nc12 | Non-Toxic | – | – | – | – | 7.29 | – | 564 |
